Measurements as given in ChEMBL document CHEMBL3885881, “DrugMatrix”.

Species: Rattus norvegicus
Type: toxicity, organism-based, Sprague-Dawley
Conditions: in vivo, sc, 24 h, route mini-PUMP - SUBCUTANEOUS, time 1 day, vehicle 100 % SALINE
[1] = 0 mg/kg, tissue Blood, dose level Control
[2] = 0 mg/kg, tissue Plasma, dose level Control
[3] = […], tissue Blood, dose 0.77 mg/Kg, dose level High
[4] = […], tissue Plasma, dose 0.77 mg/Kg, dose level High

Description: DrugMatrix - Regimen: Single

For `CNCC(O)c1ccc(O)c(O)c1` (configuration not stated) [RACEPINEPHRINE], the “ABSOLUTE EOSINOPHIL” value [1] was 26.17 CELLS/uL, the “ABSOLUTE LYMPHOCYTE” value [1] was 10985.83 CELLS/uL and the “ABSOLUTE MONOCYTE” value [1] was 234.5 CELLS/uL. For the same compound, the “ABSOLUTE SEGMENTED NEUTROPHIL” value [1] was 1753.5 CELLS/uL, the BASOPHIL [1] was 0% and the EOSINOPHIL [1] was 0.17%. The “ERYTHROCYTE COUNT” value [1] was 5.64 x10E6/uL, the HEMOGLOBIN [1] was 12.68 G/DL and the “LEUKOCYTE COUNT” value [1] was 13 x10E3/uL. The LYMPHOCYTE [1] was 84.5%, the “MEAN CORPUSCULAR HEMOGLOBIN” value [1] was 22.5 pg and the “MEAN CORPUSCULAR HEMOGLOBIN CONCENTRATION” value [1] was 36.78 G/DL. The “MEAN CORPUSCULAR VOLUME” value [1] was 61.18 fL, the NEUTROPHIL [1] was 13.5% and the “NUCLEATED RED BLOOD CELLS” value [1] was 0.17 /100WBC. The “PLATELET COUNT” value [1] was 679.17 x10E3/uL, the “ALANINE AMINOTRANSFERASE” value [2] was 42.67 u/L and the ALBUMIN [2] was 3.77 G/DL. For the same compound, the “ALKALINE PHOSPHATASE” value [2] was 291.17 u/L, the “ASPARTATE AMINOTRANSFERASE” value [2] was 74.5 u/L and the “BLOOD UREA NITROGEN” value [2] was 15.33 mg/dL. The “CARBON DIOXIDE” value [2] was 30 mmol/L, the CHLORIDE [2] was 100.83 MEQ/L and the CHOLESTEROL [2] was 65.33 mg/dL. For the same compound, the CREATININE [2] was 0.15 mg/dL, the “LACTATE DEHYDROGENASE” value [2] was 162.67 u/L and the LIPASE [2] was 8.5 u/L. The PHOSPHORUS [2] was 12.2 mg/dL, the POTASSIUM [2] was 5.73 MEQ/L and the SODIUM [2] was 144.7 MEQ/L. The “TOTAL BILIRUBIN” value [2] was 0.15 mg/dL, the “TOTAL PROTEIN” value [2] was 5.87 G/DL and the “URIC ACID” value [2] was 1.93 mg/dL. For the same compound, the “ABSOLUTE EOSINOPHIL” value [3] was 58.33 CELLS/uL, the “ABSOLUTE LYMPHOCYTE” value [3] was 10774 CELLS/uL and the “ABSOLUTE MONOCYTE” value [3] was 283.33 CELLS/uL. For the same compound, the “ABSOLUTE SEGMENTED NEUTROPHIL” value [3] was 3051 CELLS/uL, the BASOPHIL [3] was 0% and the “ERYTHROCYTE COUNT” value [3] was 5.86 x10E6/uL. The HEMOGLOBIN [3] was 12.93 G/DL, the “LEUKOCYTE COUNT” value [3] was 14.17 x10E3/uL and the LYMPHOCYTE [3] was 76.33%. The “MEAN CORPUSCULAR HEMOGLOBIN” value [3] was 22.1 pg, the “MEAN CORPUSCULAR HEMOGLOBIN CONCENTRATION” value [3] was 36.47 G/DL and the “MEAN CORPUSCULAR VOLUME” value [3] was 60.53 fL. The NEUTROPHIL [3] was 21.33%, the “NUCLEATED RED BLOOD CELLS” value [3] was 0.67 /100WBC and the “PLATELET COUNT” value [3] was 983 x10E3/uL. For the same compound, the ALBUMIN [4] was 4.03 G/DL, the “ALKALINE PHOSPHATASE” value [4] was 374 u/L and the “BLOOD UREA NITROGEN” value [4] was 11.67 mg/dL. It also gave a CHLORIDE [4] of 100.33 MEQ/L, a CHOLESTEROL [4] of 88.67 mg/dL and a CREATININE [4] of 0.15 mg/dL. For the same compound, the GLUCOSE [4] was 283.33 mg/dL, the “LACTATE DEHYDROGENASE” value [4] was 103.67 u/L and the LIPASE [4] was 9 u/L. It also gave a PHOSPHORUS [4] of 15.53 mg/dL, a POTASSIUM [4] of 5.99 MEQ/L and an SODIUM [4] of 145.87 MEQ/L. For the same compound, the “TOTAL BILIRUBIN” value [4] was 0.13 mg/dL and the “URIC ACID” value [4] was 3.3 mg/dL.
